How the values were obtained:
Type in all cases: cell-based
MOLM-13 cells = assay: MOLM-13 cell viability assay (CellTiter-Glo); settings: Homo sapiens, MOLM-13, 72 h, 3 days, concentration of 1 μM, read-out: Antiproliferative Activity (inhibition, MOLM-13 cell viability)
Outline: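 Luminescent ATP read-out (CellTiter-Glo, 10 min with shaking) after 3-day compound or DMSO exposure at 37° C, 5% CO2. Cells plated at 2,500/well in RPMI 1640 plus 10% FBS.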

CK1α = target: T1, CK1α (Homo sapiens, UniProt P48729+Q96SW2); assay: Protein degradation assay (Western blot) in MV-4-11 cells: CK1α; settings: 6-8 h, compound concentration 0.1 μM
T1 construct: Whole cell extracts were prepared using a radioimmunoprecipitation assay (RIPA) buffer; endogenous in cells; host or cells: MV-4-11
T1 sequence (P48729 whole entry): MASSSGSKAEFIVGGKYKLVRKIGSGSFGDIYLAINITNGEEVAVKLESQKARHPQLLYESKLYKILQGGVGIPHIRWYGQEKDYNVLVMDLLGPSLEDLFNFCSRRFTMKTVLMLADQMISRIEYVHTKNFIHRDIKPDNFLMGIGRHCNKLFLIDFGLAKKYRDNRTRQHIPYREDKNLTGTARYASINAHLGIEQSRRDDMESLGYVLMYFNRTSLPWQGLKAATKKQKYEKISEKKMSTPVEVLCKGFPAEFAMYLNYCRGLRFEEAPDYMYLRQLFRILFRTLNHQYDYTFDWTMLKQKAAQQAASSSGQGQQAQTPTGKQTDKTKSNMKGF
T1 sequence (Q96SW2 whole entry): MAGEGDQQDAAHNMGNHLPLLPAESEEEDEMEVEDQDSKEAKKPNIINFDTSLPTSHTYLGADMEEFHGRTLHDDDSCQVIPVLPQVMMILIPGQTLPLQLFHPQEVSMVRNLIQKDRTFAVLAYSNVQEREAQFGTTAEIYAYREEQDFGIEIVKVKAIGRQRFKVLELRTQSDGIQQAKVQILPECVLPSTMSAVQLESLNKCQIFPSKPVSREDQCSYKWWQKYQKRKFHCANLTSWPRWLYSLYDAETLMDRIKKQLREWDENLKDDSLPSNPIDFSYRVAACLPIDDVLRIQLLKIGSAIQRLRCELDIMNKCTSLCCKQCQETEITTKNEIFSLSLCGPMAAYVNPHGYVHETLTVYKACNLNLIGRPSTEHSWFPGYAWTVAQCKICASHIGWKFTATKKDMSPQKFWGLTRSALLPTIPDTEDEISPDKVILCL
T1 sequence (Q16531 whole entry partner): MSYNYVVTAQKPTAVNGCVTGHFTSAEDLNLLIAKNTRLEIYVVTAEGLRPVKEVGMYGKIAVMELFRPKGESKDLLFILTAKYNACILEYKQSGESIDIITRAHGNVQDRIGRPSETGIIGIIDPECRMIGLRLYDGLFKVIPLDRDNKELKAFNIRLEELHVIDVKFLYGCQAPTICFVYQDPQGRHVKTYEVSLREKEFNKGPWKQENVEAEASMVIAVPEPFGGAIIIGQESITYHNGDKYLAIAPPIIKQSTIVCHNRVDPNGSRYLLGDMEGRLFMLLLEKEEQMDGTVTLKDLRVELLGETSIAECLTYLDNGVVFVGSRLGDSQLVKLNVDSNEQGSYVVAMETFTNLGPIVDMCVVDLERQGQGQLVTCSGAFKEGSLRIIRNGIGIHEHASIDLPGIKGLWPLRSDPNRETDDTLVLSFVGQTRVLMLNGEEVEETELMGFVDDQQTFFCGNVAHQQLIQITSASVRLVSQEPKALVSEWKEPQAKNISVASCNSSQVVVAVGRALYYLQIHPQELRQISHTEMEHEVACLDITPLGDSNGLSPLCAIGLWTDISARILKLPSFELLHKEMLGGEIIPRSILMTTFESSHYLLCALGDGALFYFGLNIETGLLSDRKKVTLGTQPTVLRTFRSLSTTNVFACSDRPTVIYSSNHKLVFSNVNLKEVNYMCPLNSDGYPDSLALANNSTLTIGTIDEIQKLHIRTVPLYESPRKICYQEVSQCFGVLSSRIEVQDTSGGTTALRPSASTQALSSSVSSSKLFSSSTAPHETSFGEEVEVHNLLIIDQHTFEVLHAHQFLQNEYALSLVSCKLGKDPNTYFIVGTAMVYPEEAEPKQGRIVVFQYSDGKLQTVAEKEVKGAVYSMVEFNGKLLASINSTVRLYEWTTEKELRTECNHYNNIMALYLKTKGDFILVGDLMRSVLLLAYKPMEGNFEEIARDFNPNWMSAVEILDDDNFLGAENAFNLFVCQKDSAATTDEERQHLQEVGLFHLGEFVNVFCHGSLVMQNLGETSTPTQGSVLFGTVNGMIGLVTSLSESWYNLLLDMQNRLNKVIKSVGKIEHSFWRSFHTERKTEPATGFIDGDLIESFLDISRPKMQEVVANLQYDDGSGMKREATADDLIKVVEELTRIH
Description: (§1) MV-4-11 cells were grown in RPMI 1640 media supplemented with 10% fetal bovine serum, streptomycin, and penicillin. The cells were cultured at approximately 10^6 cells per mL and incubated in DMSO or a compound for 6-8 h. Whole cell extracts were prepared using a radioimmunoprecipitation assay (RIPA) buffer. Briefly, 3×10^6 cells were washed once in PBS, and the cell pellets were resuspended in the RIPA buffer and incubated for 15 min on ice. Cells debris was removed by centrifugation and the cleared whole cell lysates were transferred to new tubes for further analysis.
(§2) For Western blot analysis, whole cell protein extracts were separated on 4-12% SDS-polyacrylamide gels, transferred to nitrocellulose, and probed with primary antibodies. Membranes were subsequently washed and probed with IRDYE® secondary antibodies. The signal was detected using an ODYSSEY® Imaging System.
(§3) The following antibodies were used in the assays described herein: anti-eRF3/GSPT1: Abcam, ab126090 (Cambridge, Mass.); anti-Ikaros: Abcam, ab191394 (Cambridge, Mass.); anti-CK1α: Abcam, ab108296 (Cambridge, Mass.); β-actin (8H10D10) mouse monoclonal antibody: Cell Signaling Technology, #3700 (Danvers, Mass.); IRDYE® 680RD goat anti-rabbit antibody: LI-COR, 926-68071 (Lincoln, Nebr.); and IRDYE® 800CW goat anti-mouse antibody: LI-COR, 926-32210 (Lincoln, Nebr.).
(§4) The protein degradation results are summarized in Table 1, wherein A represents a value no less than 80%, B represents a value less than 80% but no less than 50%, C represents a value less than 50% but no less than 25%, and D represents a value less than 25% protein degradation at a compound concentration of 0.1 μM.

GSPT1 = target: T2, GSPT1 (Homo sapiens, UniProt P15170+Q96SW2); assay: Protein degradation assay (Western blot) in MV-4-11 cells: GSPT1; settings: 6-8 h, compound concentration 0.1 μM
T2 construct: Whole cell extracts were prepared using a radioimmunoprecipitation assay (RIPA) buffer; endogenous in cells; host or cells: MV-4-11
T2 sequence (P15170 whole entry): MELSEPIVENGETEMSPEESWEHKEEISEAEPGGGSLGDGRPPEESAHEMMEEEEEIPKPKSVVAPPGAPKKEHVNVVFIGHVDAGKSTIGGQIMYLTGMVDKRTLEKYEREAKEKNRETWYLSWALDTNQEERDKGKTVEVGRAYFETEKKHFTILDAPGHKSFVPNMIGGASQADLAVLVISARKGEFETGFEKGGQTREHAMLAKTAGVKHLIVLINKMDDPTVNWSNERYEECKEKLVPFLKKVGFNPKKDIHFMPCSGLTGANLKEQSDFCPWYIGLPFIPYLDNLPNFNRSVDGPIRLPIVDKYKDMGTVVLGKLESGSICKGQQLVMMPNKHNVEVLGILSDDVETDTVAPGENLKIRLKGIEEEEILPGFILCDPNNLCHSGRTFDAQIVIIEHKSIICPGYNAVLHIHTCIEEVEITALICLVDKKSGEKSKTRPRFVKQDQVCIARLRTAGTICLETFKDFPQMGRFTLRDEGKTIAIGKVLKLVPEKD
T2 sequence (Q96SW2 whole entry): as the sequence (Q96SW2 whole entry) above
T2 sequence (Q16531 whole entry partner): as the sequence (Q16531 whole entry partner) above
Description: as §1, §2, §3, §4

IKAROS = target: T3, IKAROS (Homo sapiens, UniProt Q13422+Q96SW2); assay: Protein degradation assay (Western blot) in MV-4-11 cells: IKAROS; settings: 6-8 h, compound concentration 0.1 μM
T3 construct: Whole cell extracts were prepared using a radioimmunoprecipitation assay (RIPA) buffer; endogenous in cells; host or cells: MV-4-11
T3 sequence (Q13422 whole entry): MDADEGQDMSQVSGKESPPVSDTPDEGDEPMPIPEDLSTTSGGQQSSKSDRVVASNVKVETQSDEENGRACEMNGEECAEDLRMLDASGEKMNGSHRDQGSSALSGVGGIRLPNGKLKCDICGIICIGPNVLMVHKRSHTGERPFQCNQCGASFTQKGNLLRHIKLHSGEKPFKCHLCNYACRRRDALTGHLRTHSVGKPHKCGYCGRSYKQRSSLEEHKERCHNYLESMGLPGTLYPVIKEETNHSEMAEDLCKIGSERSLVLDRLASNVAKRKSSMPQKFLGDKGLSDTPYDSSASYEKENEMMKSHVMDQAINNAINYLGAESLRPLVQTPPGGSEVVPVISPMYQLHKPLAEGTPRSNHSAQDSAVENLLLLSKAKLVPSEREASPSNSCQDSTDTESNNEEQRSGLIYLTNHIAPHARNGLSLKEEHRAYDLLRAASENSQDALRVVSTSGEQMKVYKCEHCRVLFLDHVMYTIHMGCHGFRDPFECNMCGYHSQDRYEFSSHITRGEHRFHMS
T3 sequence (Q96SW2 whole entry): as the sequence (Q96SW2 whole entry) above
T3 sequence (Q16531 whole entry partner): as the sequence (Q16531 whole entry partner) above
Description: as §1, §2, §3, §4

TNF-α = assay: Cytokine modulation assay, LPS-induced PBMCs or CD14+ monocytes: TNFα; settings: 100 ng/mL LPS 18-24 h; for inhibition at 1 µM: 1 μM compound
Description: (§5) Frozen primary blood mononuclear cells (PBMCs) or frozen CD14+ mobilized peripheral blood monocytes were quick thawed, washed once with RPMI-1640 (10% FBS/1% Pen-Strep), and plated in 96 well plates at 200,000 cells per well. The cells were pretreated with DMSO only or with a compound for 1 h and then induced with 100 ng/mL lipopolysaccharide (LPS) for 18-24 h. The supernatant was analyzed for IL-1β, IL-6, and TNFα using Meso Scale assays. The negative control wells were treated with DMSO.

IL-1β = assay: Cytokine modulation assay, LPS-induced PBMCs or CD14+ monocytes: IL-1β; settings: 100 ng/mL LPS 18-24 h; for inhibition at 1 µM: 1 μM compound
Description: as §5

THLE-2 cells = assay: THLE-2 cell viability assay (CellTiter-Glo); settings: Homo sapiens, 72 h, 3 days
Description: THLE-2 cells were cultured using BEGM™ BULLETKIT™ supplemented with 10% fetal bovine serum, streptomycin, and penicillin. The cells were plated in white walled 96-well plates at 5,000 cells/well. After the cells were incubated in DMSO (control) or a compound for 3 days at 37° C. and 5% CO2, 100 μL of CELLTITER-GLO® (CTG) was added to each well. Following a 10 minutes incubation with shaking, luminescence was measured using an ENVISION® Multimode plate reader. In this example, compound II-1 was compared to reference compound A: […]

Protein Degradation IKAROS (IKAROS)	SMILES	cytotoxicity at 1 µM (MOLM-13 cells)	Protein Degradation GSPT1 (GSPT1)	also measured
A (a value no less than 80%)	CC(C)(C)c1ccc(C(=O)C(=O)NCc2ccc3c(c2)CN(C2CCC(=O)NC2=O)C3=O)cc1 (stereo not shown) [Compound I-2, 2-(4-(tert-butyl)phenyl)-N-((2-(2,6-dioxopiperidin-3-yl)-1-oxoisoindolin-5-yl)methyl)-2-oxoacetamide]	> 80%	A (a value no less than 80%)	Protein Degradation CK1α (CK1α): B (a value less than 80% but no less than 50%)
A (a value no less than 80%)	CC(C)c1ccc(C(=O)C(=O)NCc2scc3c2CN(C2CCC(=O)NC2=O)C3=O)s1 (stereo not shown) [Compound I-4, N-((5-(2,6-dioxopiperidin-3-yl)-4-oxo-5,6-dihydro-4H-thieno[3,4-c]pyrrol-1-yl)methyl)-2-(5-isopropylthiophen-2-yl)-2-oxoacetamide]	> 80%	C (a value less than 50% but no less than 25%)	inhibition at 0.1 µM (TNF-α; 0.1 μM compound): > 80%; inhibition at 1 µM (TNF-α): > 80%; inhibition at 0.1 µM (IL-1β; 0.1 μM compound): > 80%; inhibition at 1 µM (IL-1β): > 80%
A (a value no less than 80%)	O=C1CCC(N2Cc3cc(CNC(=O)C(=O)c4ccc(C5(C(F)(F)F)CC5)cc4)ccc3C2=O)C(=O)N1 (stereo not shown) [Compound I-5, N-((2-(2,6-dioxopiperidin-3-yl)-1-oxoisoindolin-5-yl)methyl)-2-oxo-2-(4-(1-(trifluoromethyl)cyclopropyl)phenyl)acetamide]	> 80%	A (a value no less than 80%)	Protein Degradation CK1α (CK1α): C (a value less than 50% but no less than 25%)
	Cc1ccc(NC(=O)NCc2cc3c(s2)C(=O)N(C2CCC(=O)NC2=O)C3)cc1Cl (stereo not shown) [reference compound A, reference compound]			IC50 (THLE-2 cells): 0.8 µM
	Cc1ccc(NC(=O)NCc2cc3c(s2)C(=O)N(C2CCC(=O)NC2=O)C3)cc1N(C)C (stereo not shown) [II-1, 1-(3-(dimethylamino)-4-methylphenyl)-3-((5-(2,6-dioxopiperidin-3-yl)-6-oxo-5,6-dihydro-4H-thieno[2,3-c]pyrrol-2-yl)methyl)urea]	> 80%	B (a value less than 80% but no less than 50%)	inhibition at 1 µM (TNF-α): 25 to 50%; inhibition at 1 µM (IL-1β): 25 to 50%; IC50 (THLE-2 cells): 8.9 µM
	COc1ccc(C(=O)C(=O)NCc2scc3c2CN(C2CCC(=O)NC2=O)C3=O)cc1 (stereo not shown) [Compound I-11, 2-(4-methoxyphenyl)-N-((5-(2,6-dioxopiperidin-3-yl)-4-oxo-5,6-dihydro-4H-thieno[3,4-c]pyrrol-1-yl)methyl)-2-oxoacetamide]	< 25%		
	Cc1cc(C)c(C(=O)C(=O)NCc2ccc3c(c2)CN(C2CCC(=O)NC2=O)C3=O)c(C)c1 (stereo not shown) [Compound I-85, N-((2-(2,6-dioxopiperidin-3-yl)-1-oxoisoindolin-5-yl)methyl)-2-oxo-2-(2,4,6-trimethylphenyl)acetamide]	50 to 80%		
	CC(C)(C)c1ccc(C(=O)C(=O)NCc2cc(F)cc3c2CN(C2CCC(=O)NC2=O)C3=O)cc1 (stereo not shown) [Compound I-29, 2-(4-(tert-butyl)phenyl)-N-((2-(2,6-dioxopiperidin-3-yl)-6-fluoro-1-oxoisoindolin-4-yl)methyl)-2-oxoacetamide]	> 80%		
	O=C1CCC(N2Cc3c(CNC(=O)C(=O)c4ccc(C(F)(F)F)cc4)cccc3C2=O)C(=O)N1 (stereo not shown) [Compound I-75, N-((2-(2,6-dioxopiperidin-3-yl)-1-oxoisoindolin-4-yl)methyl)-2-oxo-2-(4-(trifluoromethyl)phenyl)acetamide]	25 to 50%		
